Assay results: US20130005833A1, “PHOTO-RESPONSIVE SUPRAMOLECULAR HYDROGELS” (priority 2011, published 2013)
Azo = N-terminal azobenzene

How the values were obtained:
Format in all cases: physicochemical
[1] = Hydrogelation conditions: lowest concentration to gel water at specific pH; parameters: key to pH (hydrogelation condition): —: unable to form hydrogel under tested conditions; settings: for pH (to form a hydrogel): azobenzene substituted bio-active short peptides
Description: Preparation of Hydrogels. A homogeneous solution of azobenzene-substituted short peptides was prepared in a glass vial via pH adjustment and heating. Upon cooling to room temperature, a hydrogel formed for Azo-Gln-Phe-Ala; Azo-Lys-Phe-Ala; Azo-Leu- Phe-Ala; Azo-D-Lys-D-Phe-D-Ala; and Azo-Arg-Phe-Ala. However, Azo-Lys-D-Phe-D-Ala and Azo-D-Lys-Phe-Ala, sonification was necessary to facilitate the hydrogelation. Hydrogels of Azo-Ser-Phe-Ala; Azo-Gln-Tyr-Ala; Azo-Glu-Tyr-Ala; and Azo-Glu-Phe-Ala were prepared by acidifying the basic solution to the pH shown in Table 1.
Test on pH and salt effects on gelation properties. pH effect: Azo-dipeptides were mixed with a small quality of water and the mixture were adjusted to the desired pH with 1M HCl or NaOH, then heated to about 80-90° C. to obtain a clear solution. A yellow hydrogel formed upon cooling to room temperature. The lowest concentration for hydrogelation at a specific pH was obtained by successive dilution of the hydrogel using water, at the same pH that of the hydrogelation, to the point when hydrogel could not form.

[2] = Salt effect on gelation properties; settings: buffer of higher concentration of Na2HPO4/NaH2PO4; FIG. 1B
Description: Salt effect: Buffers at different pHs (5 and 6) and different concentrations (0.05M, 0.1M, 0.2M and 0.5M) were prepared by mixing Na2HPO4 and NaH2PO4 with different concentration. The azo-dipeptides were mixed with a small quality of buffer and heated to about 80-90° C. to obtain a clear solution. Yellow hydrogels formed upon cooling to room temperature. The lowest concentration for hydrogelation at specific pH was obtained by successive dilution of the hydrogel by the buffer with the same concentration of salt to the point when the hydrogel no longer formed.

[3] = Photo-response tests on the hydrogels (UV irradiation); parameters: key to tinit(min): time needed for initial collapse of the gel upon UV irradiation: —: no obvious change upon UV irradiation; settings: for tinit(min): time needed for initial collapse of the gel upon UV irradiation: high pressure mercury lamp (500 w); for total irradiation time needed for the gel to begin to collapse (tinit): UV irradiation (365 nm), Azo-Lys-Phe-Ala: partial phase transition; for photo-response of the gel upon UV irradiation (in words): Azo-Glu-Phe-Ala: even after 5 hours of UV-irradiation
Description: (§1) Photo-response tests on the hydrogels. The light source for the UV irradiation was a high pressure mercury lamp (500 w) with a filter to cut off visible light. A control experiment was performed in parallel using the same hydrogel in a tin foil covered glass vial to exclude the possibility of response induced by any external stimulus other than light irradiation. The photo-response of the hydrogels was confirmed by observation of the gel to solution phase change of the sample under irradiation, but not on the sample of negative control. In one example, ^1H NMR of Azo-Lys-D-Ala-D-Ala in d-MeOH was used to confirm that after UV irradiation for 2 minutes 11% of the compound was in the cis-configuration, and after 10 minutes, 51% was in the cis-configuration.

[4] = Temperature for gel to solution phase transition; settings: for T (° C.): temperature for gel to solution phase transition: azobenzene substituted tripeptide hydrogels
[5] = 1H NMR determination of cis-configuration after UV irradiation; settings: 1H NMR in d-MeOH
Description: as §1

[6] = Rheology test on the hydrogel before and after UV irradiation
Description: Rheology test on the hydrogel before and after UV irradiation. All rheological measurements were performed using an ARES-G2 Rheometer with a cone and a plate (25 mm diameter plate and 0.0999 rad cone angle), and a gap opening between the cone and the plate of 0.0282 mm. The dynamic strain sweep test was carried out at 6.282 rad/s, and then dynamic frequency sweep test was investigated at critical strain, which was determined from storage-strain profile.

[7] = azobenzene substituted dipeptides
[8] = azobenzene substituted tripeptides, pH at which the lowest gelling concentration applies

**Q.** For Azo-Ala-Phe, which “pH (hydrogelation condition)” value [1, 7] is on record?
**A.** 9.5

**Q.** Which “salt effect on concentration required for hydrogelation” value (shortened to “salt effect on concentration required”) [2] does the source give for Azo-Ala-Tyr here?
**A.** decreased the concentration required for hydrogelation

**Q.** And the “pH (hydrogelation condition)” value [1, 7]?
**A.** 5.1

**Q.** For Azo-Arg-Ala, which “pH (hydrogelation condition)” value [1, 7] is on record?
**A.** —

**Q.** With Azo-Arg-Gln as the substance, how does the “pH (hydrogelation condition)” value [1, 7] read?
**A.** —

**Q.** For Azo-Arg-Lys, which “pH (hydrogelation condition)” value [1, 7] is on record?
**A.** —

**Q.** For Azo-Arg-Phe, which “pH (hydrogelation condition)” value [1, 7] is on record?
**A.** —

**Q.** With Azo-Arg-Phe-Ala as the substance, how does the “tinit(min): time needed for initial collapse of the gel upon UV irradiation” value (shortened to “tinit(min): time needed”) [3] read?
**A.** 8 min

**Q.** And the “T (° C.): temperature for gel to solution phase transition” value (“T (° C.): temperature for gel” for short) [4]?
**A.** 47 °C

**Q.** And the “pH (hydrogelation condition)” value [1, 8]?
**A.** 1.6

**Q.** With Azo-D-Lys-D-Phe-D-Ala as the substance, how does the “tinit(min): time needed” value [3] read?
**A.** 15 min

**Q.** What about the “T (° C.): temperature for gel” value [4] of the same substance?
**A.** 60 °C

**Q.** And the “pH (hydrogelation condition)” value [1, 8]?
**A.** 1.6

**Q.** With Azo-D-Lys-Phe-Ala as the substance, how does the “tinit(min): time needed” value [3] read?
**A.** 4 min

**Q.** And the “T (° C.): temperature for gel” value [4]?
**A.** 39 °C

**Q.** What about the “pH (hydrogelation condition)” value [1, 8] of the same substance?
**A.** 1.4

**Q.** For Azo-GAGAS, which “pH (to form a hydrogel)” value [1] is on record?
**A.** 3.9

**Q.** With Azo-Gln-Ala as the substance, how does the “pH (hydrogelation condition)” value [1, 7] read?
**A.** 2.5

**Q.** Which “pH (hydrogelation condition)” value [1, 7] does the source give for Azo-Gln-Gln here?
**A.** —^b

**Q.** For Azo-Gln-Phe-Ala, which “total irradiation time needed for the gel to begin to collapse (tinit)” value (“total irradiation time needed” below) [3] is on record?
**A.** ≤ 3 min

**Q.** What about the “tinit(min): time needed” value [3] of the same substance?
**A.** 3 min

**Q.** What about the “time to complete conversion of the hydrogel into a homogeneous non-viscous solution” value ([3]; UV light (365 nm), without external heating) of the same substance?
**A.** under 20 minutes

**Q.** And the “T (° C.): temperature for gel” value [4]?
**A.** 65 °C

**Q.** What about the “pH (hydrogelation condition)” value [1, 8] of the same substance?
**A.** 7.8

**Q.** For Azo-Gln-Tyr, which “pH (hydrogelation condition)” value [1, 7] is on record?
**A.** 4.8

**Q.** With Azo-Gln-Tyr-Ala as the substance, how does the “tinit(min): time needed” value [3] read?
**A.** —

**Q.** And the “T (° C.): temperature for gel” value [4]?
**A.** 81 °C

**Q.** And the “pH (hydrogelation condition)” value [1, 8]?
**A.** 3.1

**Q.** Which “pH (hydrogelation condition)” value [1, 7] does the source give for Azo-Glu-Ala here?
**A.** 2.4

**Q.** For Azo-Glu-Lys, which “pH (hydrogelation condition)” value [1, 7] is on record?
**A.** —

**Q.** For Azo-Glu-Phe, which “pH (hydrogelation condition)” value [1, 7] is on record?
**A.** 2.5

**Q.** For Azo-Glu-Phe-Ala, which “photo-response of the gel upon UV irradiation (in words)” value (shortened to “photo-response”) [3] is on record?
**A.** No photo-response was observed

**Q.** What about the “tinit(min): time needed” value [3] of the same substance?
**A.** —^d

**Q.** What about the “T (° C.): temperature for gel” value [4] of the same substance?
**A.** 85 °C

**Q.** What about the “pH (hydrogelation condition)” value [1, 8] of the same substance?
**A.** 4.7

**Q.** Which “salt effect on concentration required” value [2] does the source give for Azo-Glu-Tyr here?
**A.** almost negligible

**Q.** What about the “pH (hydrogelation condition)” value [1, 7] of the same substance?
**A.** 4.8

**Q.** For Azo-Glu-Tyr-Ala, which “tinit(min): time needed” value [3] is on record?
**A.** —

**Q.** And the “T (° C.): temperature for gel” value [4]?
**A.** 69 °C

**Q.** What about the “pH (hydrogelation condition)” value [1, 8] of the same substance?
**A.** 3.0

**Q.** For Azo-Gly-Phe-Ala, which “photo-response” value [3] is on record?
**A.** fast responses

**Q.** And the “total irradiation time needed” value [3]?
**A.** 5 min

**Q.** What about the “tinit(min): time needed” value [3] of the same substance?
**A.** 5 min

**Q.** What about the “T (° C.): temperature for gel” value [4] of the same substance?
**A.** 48 °C

**Q.** What about the “pH (hydrogelation condition)” value [1, 8] of the same substance?
**A.** 7.5

**Q.** For Azo-IKVAV, which “pH (to form a hydrogel)” value [1] is on record?
**A.** 4.5

**Q.** Which “pH (to form a hydrogel)” value [1] does the source give for Azo-LGAGGAG (Azo-LGAGGAG-OH) here?
**A.** 1.6

**Q.** With Azo-Leu-Phe-Ala as the substance, how does the “tinit(min): time needed” value [3] read?
**A.** 15 min

**Q.** And the “T (° C.): temperature for gel” value [4]?
**A.** 71 °C

**Q.** And the “pH (hydrogelation condition)” value [1, 8]?
**A.** 8.6

**Q.** With Azo-Lys-Ala as the substance, how does the “pH (hydrogelation condition)” value [1, 7] read?
**A.** —

**Q.** Which “compound in the cis-configuration” value ([5]; after UV irradiation for 2 minutes) does the source give for Azo-Lys-D-Ala-D-Ala here?
**A.** 11%

**Q.** And the “compound in the cis-configuration” value ([5]; after UV irradiation for 10 minutes)?
**A.** 51%

**Q.** With Azo-Lys-D-Phe-D-Ala as the substance, how does the “photo-response” value [3] read?
**A.** fast responses

**Q.** And the “total irradiation time needed” value [3]?
**A.** 7 min

**Q.** And the “tinit(min): time needed” value [3]?
**A.** 7 min

**Q.** What about the “temperature at which the gel turned into a solution upon heating” value [4] of the same substance?
**A.** 42 °C

**Q.** What about the “T (° C.): temperature for gel” value [4] of the same substance?
**A.** 42 °C

**Q.** What about the “pH (hydrogelation condition)” value [1, 8] of the same substance?
**A.** 1.2

**Q.** And the “decrease in the storage modulus of the hydrogel after UV irradiation” value ([6]; dynamic frequency sweep test, FIG. 4B)?
**A.** greater than 100 times

**Q.** What about the “storage modulus of the hydrogel before UV irradiation relative to after UV irradiation” value ([6]; dynamic strain sweep test, FIG. 4A) of the same substance?
**A.** 70 times

**Q.** Which results are given for Azo-Lys-Phe-Ala?
**A.** total irradiation time needed for the gel to begin to collapse (tinit) [3]: 30 min; tinit(min): time needed for initial collapse of the gel upon UV irradiation [3]: 30 min; T (° C.): temperature for gel to solution phase transition [4]: 59 °C; pH (hydrogelation condition) [1, 8]: 1.6

**Q.** Which “pH (hydrogelation condition)” value [1, 7] does the source give for Azo-Phe-Ala here?
**A.** 7.8

**Q.** With Azo-Phe-Glu as the substance, how does the “pH (hydrogelation condition)” value [1, 7] read?
**A.** 2.1

**Q.** With Azo-Phe-Phe as the substance, how does the “pH (hydrogelation condition)” value [1, 7] read?
**A.** 9.7

**Q.** For Azo-Phe-Ser, which “pH (hydrogelation condition)” value [1, 7] is on record?
**A.** 2.0

**Q.** Which “pH (hydrogelation condition)” value [1, 7] does the source give for Azo-Phe-Tyr here?
**A.** 8.6

**Q.** With Azo-Ser-Ala as the substance, how does the “pH (hydrogelation condition)” value [1, 7] read?
**A.** —

**Q.** With Azo-Ser-Phe as the substance, how does the “pH (hydrogelation condition)” value [1, 7] read?
**A.** 5.7

**Q.** For Azo-Ser-Phe-Ala, which “tinit(min): time needed” value [3] is on record?
**A.** —^d

**Q.** What about the “T (° C.): temperature for gel” value [4] of the same substance?
**A.** 54 °C

**Q.** What about the “pH (hydrogelation condition)” value [1, 8] of the same substance?
**A.** 3.7

**Q.** With Azo-Tyr-Ala as the substance, how does the “pH (hydrogelation condition)” value [1, 7] read?
**A.** 3.0

**Q.** With Azo-Tyr-Lys as the substance, how does the “pH (hydrogelation condition)” value [1, 7] read?
**A.** 2.2

**Q.** For Azo-Tyr-Tyr, which “salt effect on concentration required” value [2] is on record?
**A.** decreased the concentration required for hydrogelation

**Q.** What about the “pH (hydrogelation condition)” value [1, 7] of the same substance?
**A.** 4.8

**Q.** With Azo-VYGGG as the substance, how does the “pH (to form a hydrogel)” value [1] read?
**A.** 2.8

**Q.** With Azo-YSV as the substance, how does the “pH (to form a hydrogel)” value [1] read?
**A.** 1.8
